The values below come from patent US6160004A, “C-10 carbon-substituted artemisinin-like trioxane compounds having antimalarial, antiproliferative and antitumor activities” (priority 1998, dated 2000).

A word on the ED50: it is the dose that gives a 50% effect, or the effect in half of the subjects. Broadly, the pIC50 is the IC50 on a negative log10 scale, so that one unit is a factor of ten. For orientation: GI50 means the concentration giving 50% growth inhibition.

The subject of series [1] is P. falciparum, two Hanian strains. The settings on record: P. falciparum in vitro; cited from earlier work.
In series [2] the test system is P. falciparum Camp (chloroquine-susceptible) and Smith (chloroquine-resistant) strains. To be noted: P. falciparum in vitro; cited from earlier work.
For series [3] the following is noted: cited from earlier work.
In series [4] the test system is P. vivax and P. falciparum. The settings on record: cited from earlier work.
A further series has as its system malaria. Description: In vivo antimalarial activity. To be noted: sc. On the set-up: species or system rodents.
The next series deals with 60 cell line panel. To be noted: 60 line panel, earlier studies; cited from earlier work.
In a further series the test system is P. berghei. The settings on record: P. berghei-infected mice, parasitemia 90 percent suppressed; cited from earlier work.
Series [5] deals with Ehrlich ascites tumor (EAT) cells. To be noted: MTT, growth inhibition; cited from earlier work.
The next series in a line: Stability (hydrolysis). The class given is physicochemical.
The next series deals with SF-295. Description: cells. The class given is cell-based. The settings on record: Homo sapiens; for CC50: read-out: Log10 LC50 (converted); for GI50: read-out: Log10 GI50 (converted).
The subject of a further series is SK-MEL-5. Description: NCI 60 cell line panel screening assay (SRB), SK-MEL-5. It counts as cell-based. The settings on record: Homo sapiens; SK-MEL-5, melanoma, 48 h; read-out: Log10 GI50 (converted).
A further series concerns HCC-2998. Description: NCI 60 cell line panel screening assay (SRB), HCC-2998. The settings on record: Homo sapiens, HCC 2998, 48 h, read-out: Log10 LC50 (converted). The class given is cell-based.
The test system of another series is IGROVI. The series is described as follows: NCI 60 cell line panel screening assay (SRB), IGROVI. It counts as cell-based. The settings on record: 48 h, read-out: Log10 TGI.
The subject of series [6] is murine keratinocyte cell line PE. Description: Growth inhibition of murine keratinocytes (MTT). It counts as cell-based, murine (SENCAR mice). To be noted: 100 nanomolar. Here is the method: To determine the inhibitory effect of the compositions of the present invention on cell proliferation, screening assays were performed on a murine keratinocyte cell line PE. Cell line PE was chosen for its particular sensitivity to the induction of ornithine decarboxylase (ODC) activity by the extensively characterized tumor promoter TPA. […] PE cell culture medium consisted of Eagle's minimal essential medium without calcium chloride (Whittaker Bioproducts, Walkersville, Mass.) supplemented with 8% chelexed fetal calf serum and 1% antibiotic-antimycotic (Gibco BRL) and the addition of CaCl2 to 0.05 mM Ca^++.
MTT [3-(4,5-dimethylthiazol-2-yl)-2,5-diphenyltetraxolium bromide] was purchased from Sigma Chemical Co. (St. Louis, Mo.), and TPA was supplied by L.C. Services (Woburn, Mass.). L-[^14 C]omithine (56 μCi/mol) was from Amersham/Searle Corp. (Arlington Heights, Ill.). Chemical solvents used in all assays of biological activity were of the highest grade commercially available.
Growth Inhibition. Growth curves, shown in FIGS. 1-5, for PE cells treated with calcitriol and the C-10 carbon-substituted dimers 38, 39, 43, 44, 45, 47 and 48, and monomer 27 generated by assay for the reduction of the tetrazolium-based compound MTT, see Charmichael, et al., Cancer Res., 47:936-942 (1987). […] PE cells were seeded at a density of 5,000 cells/well in 50 μL of medium into 96-well microtiter plates. Twelve hours later, the medium was removed, and cells were treated with 100 μL of fresh medium into which the appropriate amount of calcitriol or analog dissolved in dimethyl sulfoxide (DMSO) had been added, with the concentration of DMSO held constant at 0.1%. […] At 24-hour intervals following the initial treatment of the cells with compounds, 0.1 mg (50 μL of a 2 mg/mL solution) of MTT was added to each well. After 4 hours, the MTT was removed and DMSO added to dissolve the blue formazan dye. Using a microtiter plate reader, the A505 was then determined and cell number calculated from blank-subtracted absorbance values.

pIC50: −log10 of the molar value. Like-named read-outs stand apart in the source and are kept apart here.

On to `C[C@@H]1CC[C@H]2[C@@H](C)C(=O)O[C@@H]3O[C@@]4(C)CC[C@@H]1[C@]32OO4` [Artemisinin], for which, in series [1], the “potency compared to chloroquine” value is recorded as “comparable”. Besides, in series [2], the “potency compared to mefloquine” value was “comparable”. Moreover, in [3], the solubility in water entry was “insolubility in water”. Also, the figures for the “clinical outcome in malaria patients” value in series [4] and in series [4] (listed as artemisinin) were “clinical cure of all patients” and “used successfully in many thousand malaria patients”, respectively. Also, the median effective dose (ED50) with malaria (read-out: ED50 subcutaneous) amounted to 3 mg/kg. In addition, the ED90 in the series with malaria (read-out: ED90 subcutaneous) amounted to 8.5 mg/kg. Further, the anticancer activity entry with 60 cell line panel is “very little anticancer activity”. The SD90 in the series on P. berghei is 6.20 mg/kg. Moreover, the pIC50 in series [5] was 4.53.

For `C[C@H]1[C@@H](F)O[C@@H]2O[C@@]3(C)CC[C@H]4[C@H](C)CC[C@@H]1[C@@]24OO3` [Compound VI, 10β-Fluoro-10-deoxoartemisinin], in the series “Stability (hydrolysis)”, the stability result is “stable crystalline solid”. Further, the CC50 in the series with SF-295 (SF-295, 48 h) is > 100 µM; with HCC-2998, > 100 µM. Besides, the 50% growth inhibitory concentration (GI50) with SF-295 (SF-295, CNS cancer, 48 h) is 17 µM; in the series on SK-MEL-5 it was 0.49 µM. In the series on SF-295 (SF-295, CNS cancer, 48 h, read-out: Log10 TGI), the IC (TGI) was > 100 µM.

In the case of `CC1CCC2C(C)C(CC(=O)c3cccc(C(=O)CC4OC5OC6(C)CCC7C(C)CCC(C4C)C57OO6)c3)OC3OC4(C)CCC1C32OO4` (centres unmarked) [Dimer 39], the IC (TGI) in the series with IGROVI is > 100 µM. In addition, in the series on SF-295 (SF-295, CNS cancer, 48 h), the 50% growth inhibitory concentration (GI50) was > 100 µM and the CC50 was > 100 µM. Further, in series [6], the “antiproliferative activity relative to calcitriol” value is listed as “at least as antiproliferative as calcitriol”.
